The values below come from patent publication US20040166137A1, “Hetero-substituted benzimidazole compounds and antiviral uses thereof” (priority 2002, published 2004).

The subject of series [1] is rhinoviruses. The following applies: cited from earlier work.
Series [2] is described as follows: XTT cytotoxicity assay on uninfected Hep2 cells. The series is classed as cell-based. The following applies: human. Here is the method: Uninfected confluent monolayers (seeded at 2.2×10^4 cells/well) of Hep2 cells were grown in microtiter wells (96-well plates) in EMEM (Eagle Minimum Essential Medium w/o L-glutamine [Bio Whittaker Cat. No. 12-125F] with 3% fetal bovine serum (FBS; which had been heat inactivated for 30 minutes at 56° C.; Bio Whittaker Cat. No. 14-501F), antibiotics (penicillin/streptomycin; Bio Whittaker Cat. No. 17-602E) added at 1%, and glutamine added at 1% (complete EMEM). The plates were incubated for 24 hours and used for antiviral assays and cytotoxicity assays.
Cytotoxicity assays were conducted by first removing all medium from the well containing uninfected Hep2 cells, adding 100 μl complete EMEM, and then adding hetero-substituted benzimidazole compounds (eight 3-fold dilutions with 100 μM concentration as the highest final concentration). Complete EMEM (50 μl) was added to each well instead of virus and the plates were incubated in a CO2 incubator at 37° C. for 48 hours.
At 48 hours, the cytotoxicity assays were developed by adding to each well 50 μl of XTT (1 mg/ml in PBS) containing 0.01-0.02 mM of the electron coupling agent phenazine methosulfate (PMS). The plates were incubated for 2-4 hours at 37° C. and then read in a 96-well plate reader at 450 nm. Plotting the % average OD of treated wells compared to the cell control vs. compound concentration generated dose response curves. CC50 (50% inhibitory cytotoxic concentration) values for each compound were then calculated from these curves. […]
On the technique in general: Tetrazolium dyes change colour on reduction, which living cells bring about.

Series [3] has as its system RSV. The series can be described thus: Antiviral assay (PRA): inhibition of RSV syncytial plaque formation on Hep2 cell monolayers. The series is classed as cell-based. Particulars: human respiratory syncytial virus, HEp-2; Table 2; RSV-infected Hep2 cells, 48 hours, syncytia counted; read-out: PRA (IC50). The method, then: The lower the observed level of fusion, the greater the antiviral activity of the compound was determined to be. Uninfected confluent monolayers (seeded at 2.2×10^4 cells/well) of Hep2 cells were grown in microtiter wells (96-well plates) in EMEM (Eagle Minimum Essential Medium w/o L-glutamine [Bio Whittaker Cat. […] Bio Whittaker Cat. No. 14-[…]), antibiotics (penicillin/streptomycin; Bio Whittaker Cat. […] The plates were incubated for 24 hours and used for antiviral assays and cytotoxicity assays. To prepare Hep2 cells for addition to uninfected cells, cultures of […] infected Hep2 cells were washed with DPBS (Dulbecco's Phosphate Buffered Saline w/o calcium or magnesium; Bio Whittaker Cat. […] Gibco Life Technologies Cat. No. 15040-017). The cells were spun for 10 minutes and resuspended in 3% FBS. Cell counts were performed using a hemacytometer. Persistent cells were added to the uninfected Hep2 cells. The antiviral assay was conducted by first removing all medium from the wells containing uninfected Hep2 cells, adding 100 μl complete EMEM, then adding hetero-substituted benzimidazole compounds (eight 3-fold dilutions with 20 μM concentration as the highest final concentration) in 50 μl complete EMEM. Approximately 50 […] plaque forming units (PFU) of RSV in 50 μl was added per well and the plates were incubated in a CO2 incubator at 37° C. for 48 hours. Each plate contained uninfected control wells and infected untreated control wells for calculation of % inhibition (EC50) for each concentration. After incubation, cells in control wells were checked for fusion centers, medium was removed from the wells followed by addition to each well of either Crystal Violet stain or XTT. With respect to Crystal Violet, approximately 50μl 0.25% Crystal Violet stain in methanol was added to each well. The wells were rinsed immediately, to remove excess stain, and were allowed to dry. The number of syncytia per well were then counted, using a dissecting microscope. For antiviral assays at 48 hours post infection, cells in control wells were checked for syncytial plaques. Medium was removed from the wells followed by addition of approximately 50 Al Crystal Violet stain (0.25% Crystal Violet, 0.25% Giemsa dissolved in 10% formaldehyde, 70% methanol, and 20% H2O). The wells were incubated at room temperature for 5 minutes, rinsed with H2O to remove excess stain, and allowed to dry. The number of syncytia per well were counted using a dissecting microscope. The 50% inhibitory concentration (EC50) for each compound was calculated from the dose response curve. The compounds listed in Tables 1-2 have been screened for inhibitory activity against RSV.

Some results are limits rather than exact numbers.

For the compound `COc1ccc2nc[nH]c2c1` [5-methoxybenzimidazole], in series [1], the “inhibition of the cytopathic effect” value is 100%. The CC50 is the concentration that lowers cell viability or growth by half. A low value points to harm at low concentration. In general, IC50 refers to the concentration needed to halve the response being measured. In series [2], `FC(F)(F)c1ccc(N2CCN(Cc3nc4cccnc4n3Cc3nc4ccccc4[nH]3)CC2)cc1` [compound 14, 3-(1H-Benzoimidazol-2-ylmethyl)-2-[4-(4-trifluoromethyl-phenyl)-piperazin-1-ylmethyl]-3H-imidazo[4,5-b]pyridine] showed a CC50 at 48 h of no less than 100000 nM. For the same compound, the IC50 in series [3] was 5 nM. In the case of `Oc1cc2c(cc1O)CN(Cc1nc3cccnc3n1Cc1nc3ccccc3[nH]1)CC2` [compound 15, 2-[3-(1H-Benzoimidazol-2-ylmethyl)-3H-imidazo[4,5-b]pyridin-2-ylmethyl]-1,2,3,4-tetrahydro-isoquinoline-6,7-diol], the CC50 at 48 h in series [2] is no less than 100000 nM. In addition, the IC50 in series [3] was determined as 13 nM.

Take `c1ccc2[nH]c(Cn3c(CN4CCNCC4)nc4cccnc43)nc2c1` [compound 16, 3-(1H-Benzoimidazol-2-ylmethyl)-2-piperazin-1-ylmethyl-3H-imidazo[4,5-b]pyridine]: in series [2], the 50% cytotoxic concentration (CC50) at 48 h was no less than 100000 nM. Further, the IC50 in series [3] turned out to be 120 nM.

`O=C(Cc1ccccc1)N1CCN(Cc2nc3cccnc3n2Cc2nc3ccccc3[nH]2)CC1` [compound 17, 1-{4-[3-(1H-Benzoimidazol-2-ylmethyl)-3H-imidazo[4,5-b]pyridin-2-ylmethyl]-piperazin-1-yl}-2-phenyl-ethanone] showed a CC50 at 48 h in series [2] of no less than 100000 nM. In addition, the IC50 in series [3] stood at 20 nM.

`CC(=O)N1CCN(Cc2nc3cccnc3n2Cc2nc3ccccc3[nH]2)CC1` [compound 18, 1-{4-[3-(1H-Benzoimidazol-2-ylmethyl)-3H-imidazo[4,5-b]pyridin-2-ylmethyl]-piperazin-1-yl}-ethanone] had a CC50 at 48 h in series [2] of no less than 100000 nM. Besides, in series [3], the IC50 turned out to be 4 nM.

Consider `O=C(Nc1ccc2c(c1)OCCCO2)N1CCN(Cc2nc3cccnc3n2Cc2nc3ccccc3[nH]2)CC1` [compound 20, 4-[3-(1H-Benzoimidazol-2-ylmethyl)-3H-imidazo[4,5-b]pyridin-2-ylmethyl]-piperazine-1-carboxylic acid (3,4-dihydro-2H-benzo[b][1,4]dioxepin-7-yl)-amide], for which the CC50 at 48 h in series [2] is no less than 100000 nM. The IC50 in series [3] came to 5 nM. The corresponding values for `O=C(c1ccco1)N1CCN(Cc2nc3cccnc3n2Cc2nc3ccccc3[nH]2)CC1` [compound 21, {4-[3-(1H-Benzoimidazol-2-ylmethyl)-3H-imidazo[4,5-b]pyridin-2-ylmethyl]-piperazin-1-yl}-furan-2-yl-methanone] are no less than 100000 nM and 13 nM. The corresponding values for `OCC1CCCN1Cc1nc2cccnc2n1Cc1nc2ccccc2[nH]1` (centres unmarked) [compound 22, {1-[3-(1H-Benzoimidazol-2-ylmethyl)-3H-imidazo[4,5-b]pyridin-2-ylmethyl]-pyrrolidin-2-yl}-methanol] are no less than 100000 nM and 2 nM.

Regarding `OCCC1CCCCN1Cc1nc2cccnc2n1Cc1nc2ccccc2[nH]1` (centres unmarked) [compound 23, 2-{1-[3-(1H-Benzoimidazol-2-ylmethyl)-3H-imidazo[4,5-b]pyridin-2-ylmethyl]-piperidin-2-yl}-ethanol], the CC50 at 48 h in series [2] is no less than 100000 nM. For the same compound, the IC50 in series [3] was determined as 10 nM. In the same order, the values of `c1ccc2c(c1)CN(Cc1nc3cccnc3n1Cc1nc3ccccc3[nH]1)C2` [compound 27, 3-(1H-Benzoimidazol-2-ylmethyl)-2-(1,3-dihydro-isoindol-2-ylmethyl)-3H-imidazo[4,5-b]pyridine] are no less than 100000 nM and 20 nM. In the same order, the values of `Cc1cc(S(=O)(=O)N2CCN(Cc3nc4cccnc4n3Cc3nc4ccccc4[nH]3)CC2)c(C)s1` [compound 28, 3-(1H-Benzoimidazol-2-ylmethyl)-2-[4-(2,5-dimethyl-thiophene-3-sulfonyl)-piperazin-1-ylmethyl]-3H-imidazo[4,5-b]pyridine] are no less than 100000 nM and 16 nM. In the same order, the values of `Cc1nn(C)c(Cl)c1S(=O)(=O)N1CCN(Cc2nc3cccnc3n2Cc2nc3ccccc3[nH]2)CC1` [compound 29, 3-(1H-Benzoimidazol-2-ylmethyl)-2-[4-(5-chloro-1,3-dimethyl-1H-pyrazole-4-sulfonyl)-piperazin-1-ylmethyl]-3H-imidazo[4,5-b]pyridine] are no less than 100000 nM and 200 nM. In series [2], `O=S(=O)(c1ccc(F)cc1F)N1CCN(Cc2nc3cccnc3n2Cc2nc3ccccc3[nH]2)CC1` [compound 30, 3-(1H-Benzoimidazol-2-ylmethyl)-2-[4-(2,4-difluoro-benzenesulfonyl)-piperazin-1-ylmethyl]-3H-imidazo[4,5-b]pyridine] returned a CC50 at 48 h of no less than 100000 nM. Further, the IC50 in series [3] turned out to be 10 nM. In the same order, the values of `O=S(=O)(c1ccsc1)N1CCN(Cc2nc3cccnc3n2Cc2nc3ccccc3[nH]2)CC1` [compound 31, 3-(1H-Benzoimidazol-2-ylmethyl)-2-[4-(thiophene-3-sulfonyl)-piperazin-1-ylmethyl]-3H-imidazo[4,5-b]pyridine] are no less than 100000 nM and 10 nM.
